Experiments:
Assay in all cases: Proqinase Kinase profiling
Format in all cases: biochemical
Conditions in all cases: read-out: % inhibition at 100nM
[1] = biological target: T1, RET_S891A (Homo sapiens, UniProt P07949, S891A)
T1 construct: purchased DiscoverX

[2] = biological target: T2, CDK8_cyclinC (Homo sapiens, UniProt P49336)
T2 construct: purchased DiscoverX

[3] = biological target: T3, RET_Y791F (Homo sapiens, UniProt P07949, Y791F)
T3 construct: purchased DiscoverX

[4] = biological target: T4, RET_E762Q (Homo sapiens, UniProt P07949, E762Q)
T4 construct: purchased DiscoverX
T4 sequence (P07949 29-1114 E762Q): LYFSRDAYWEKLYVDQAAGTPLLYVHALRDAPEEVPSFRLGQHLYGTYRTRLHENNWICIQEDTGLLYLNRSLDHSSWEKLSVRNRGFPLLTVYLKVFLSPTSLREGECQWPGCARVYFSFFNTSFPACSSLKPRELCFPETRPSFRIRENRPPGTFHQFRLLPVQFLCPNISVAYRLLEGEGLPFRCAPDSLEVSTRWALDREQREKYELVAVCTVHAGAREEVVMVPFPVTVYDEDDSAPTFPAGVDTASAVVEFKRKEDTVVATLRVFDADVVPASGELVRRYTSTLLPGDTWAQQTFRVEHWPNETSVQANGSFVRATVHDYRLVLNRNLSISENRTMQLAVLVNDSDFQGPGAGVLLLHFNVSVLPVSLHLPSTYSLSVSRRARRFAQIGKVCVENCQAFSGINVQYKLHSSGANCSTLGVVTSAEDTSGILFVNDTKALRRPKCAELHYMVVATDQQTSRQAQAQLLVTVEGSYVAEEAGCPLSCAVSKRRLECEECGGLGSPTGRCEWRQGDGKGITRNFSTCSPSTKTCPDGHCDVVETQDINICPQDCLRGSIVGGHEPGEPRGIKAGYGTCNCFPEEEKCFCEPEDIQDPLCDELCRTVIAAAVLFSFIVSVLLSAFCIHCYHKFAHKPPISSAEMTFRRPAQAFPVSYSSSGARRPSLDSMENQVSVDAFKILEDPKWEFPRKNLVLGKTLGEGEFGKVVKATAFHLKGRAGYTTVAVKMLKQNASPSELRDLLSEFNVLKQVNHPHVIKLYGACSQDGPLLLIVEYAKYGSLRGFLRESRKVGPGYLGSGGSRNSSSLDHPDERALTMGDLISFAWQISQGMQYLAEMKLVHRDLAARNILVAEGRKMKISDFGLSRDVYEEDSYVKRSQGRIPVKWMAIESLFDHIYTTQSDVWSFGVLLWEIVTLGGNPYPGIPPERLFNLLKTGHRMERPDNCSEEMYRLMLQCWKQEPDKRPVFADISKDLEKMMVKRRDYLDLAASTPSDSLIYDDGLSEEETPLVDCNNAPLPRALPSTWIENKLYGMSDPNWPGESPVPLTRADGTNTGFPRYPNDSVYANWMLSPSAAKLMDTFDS

[5] = biological target: T5, CSNK1G1 (Homo sapiens, UniProt Q9HCP0)
T5 construct: purchased DiscoverX

[6] = biological target: T6, LRRK2_R1441C (Homo sapiens, UniProt Q5S007, R1441C)
T6 construct: purchased DiscoverX

[7] = biological target: T7, MAP3K3 (Homo sapiens, UniProt Q99759)
T7 construct: purchased DiscoverX

[8] = biological target: T8, STK24 (Homo sapiens, UniProt Q9Y6E0)
T8 construct: purchased DiscoverX

[9] = biological target: T9, PIM3 (Homo sapiens, UniProt Q86V86)
T9 construct: purchased DiscoverX

[10] = biological target: T10, JAK2 (Homo sapiens, UniProt O60674)
T10 construct: purchased DiscoverX

[11] = biological target: T11, MKNK2 (Homo sapiens, UniProt Q9HBH9)
T11 construct: purchased DiscoverX

[12] = biological target: T12, STK16 (Homo sapiens, UniProt O75716)
T12 construct: purchased DiscoverX
T12 sequence (O75716 whole entry): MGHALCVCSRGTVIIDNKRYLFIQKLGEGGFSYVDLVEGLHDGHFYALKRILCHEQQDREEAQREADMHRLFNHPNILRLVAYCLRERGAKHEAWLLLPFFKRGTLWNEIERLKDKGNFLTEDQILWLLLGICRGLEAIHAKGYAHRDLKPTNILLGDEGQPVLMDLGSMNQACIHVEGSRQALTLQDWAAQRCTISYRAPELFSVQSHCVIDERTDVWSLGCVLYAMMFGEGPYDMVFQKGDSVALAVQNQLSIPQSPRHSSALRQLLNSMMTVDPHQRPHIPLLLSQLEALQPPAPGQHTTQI

[13] = biological target: T13, STK4 (Homo sapiens, UniProt Q13043)
T13 construct: purchased DiscoverX

[14] = biological target: T14, RPS6KA5 (Homo sapiens, UniProt O75582)
T14 construct: purchased DiscoverX

[15] = biological target: T15, MAP2K6 (Homo sapiens, UniProt P52564)
T15 construct: purchased DiscoverX

[16] = biological target: T16, FLT3_D835Y (Homo sapiens, UniProt P36888, D835Y)
T16 construct: purchased DiscoverX

[17] = biological target: T17, TGFbR1 (Homo sapiens, UniProt P36897)
T17 construct: purchased DiscoverX

[18] = biological target: T18, CLK3 (Homo sapiens, UniProt P49761)
T18 construct: purchased DiscoverX

[19] = biological target: T19, LIMK2 (Homo sapiens, UniProt P53671)
T19 construct: purchased DiscoverX
T19 sequence (P53671 whole entry): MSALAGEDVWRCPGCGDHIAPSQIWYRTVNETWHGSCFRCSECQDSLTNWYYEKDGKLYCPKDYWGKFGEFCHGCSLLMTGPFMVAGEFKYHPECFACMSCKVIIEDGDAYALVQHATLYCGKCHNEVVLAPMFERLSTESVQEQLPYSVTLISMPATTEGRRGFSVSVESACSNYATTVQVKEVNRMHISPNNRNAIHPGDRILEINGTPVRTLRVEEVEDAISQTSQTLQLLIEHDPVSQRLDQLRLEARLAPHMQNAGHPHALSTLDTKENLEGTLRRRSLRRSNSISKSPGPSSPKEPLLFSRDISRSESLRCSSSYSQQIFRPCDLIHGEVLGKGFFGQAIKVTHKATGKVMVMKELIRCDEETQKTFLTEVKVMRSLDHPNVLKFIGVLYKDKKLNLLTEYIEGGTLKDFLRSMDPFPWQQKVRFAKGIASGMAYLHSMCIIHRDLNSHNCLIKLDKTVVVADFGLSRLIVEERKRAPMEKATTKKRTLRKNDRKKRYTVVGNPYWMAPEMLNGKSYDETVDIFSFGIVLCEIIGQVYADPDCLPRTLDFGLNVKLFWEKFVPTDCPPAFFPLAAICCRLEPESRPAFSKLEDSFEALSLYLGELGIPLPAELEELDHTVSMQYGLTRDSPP

[20] = biological target: T20, PRKCD (Homo sapiens, UniProt Q05655)
T20 construct: purchased DiscoverX

[21] = biological target: T21, HIPK1 (Homo sapiens, UniProt Q86Z02)
T21 construct: purchased DiscoverX

[22] = biological target: T22, MET_Y1230A (Homo sapiens, UniProt P08581, Y1230A)
T22 construct: purchased DiscoverX

[23] = biological target: T23, PTK2 (Homo sapiens, UniProt Q05397)
T23 construct: purchased DiscoverX

[24] = biological target: T24, TAOK3 (Homo sapiens, UniProt Q9H2K8)
T24 construct: purchased DiscoverX

[25] = biological target: T25, NEK4 (Homo sapiens, UniProt P51957)
T25 construct: purchased DiscoverX

[26] = biological target: T26, PKN2 (Homo sapiens, UniProt Q16513)
T26 construct: purchased DiscoverX

[27] = biological target: T27, CHEK2 (Homo sapiens, UniProt O96017)
T27 construct: purchased DiscoverX
T27 sequence (O96017 whole entry): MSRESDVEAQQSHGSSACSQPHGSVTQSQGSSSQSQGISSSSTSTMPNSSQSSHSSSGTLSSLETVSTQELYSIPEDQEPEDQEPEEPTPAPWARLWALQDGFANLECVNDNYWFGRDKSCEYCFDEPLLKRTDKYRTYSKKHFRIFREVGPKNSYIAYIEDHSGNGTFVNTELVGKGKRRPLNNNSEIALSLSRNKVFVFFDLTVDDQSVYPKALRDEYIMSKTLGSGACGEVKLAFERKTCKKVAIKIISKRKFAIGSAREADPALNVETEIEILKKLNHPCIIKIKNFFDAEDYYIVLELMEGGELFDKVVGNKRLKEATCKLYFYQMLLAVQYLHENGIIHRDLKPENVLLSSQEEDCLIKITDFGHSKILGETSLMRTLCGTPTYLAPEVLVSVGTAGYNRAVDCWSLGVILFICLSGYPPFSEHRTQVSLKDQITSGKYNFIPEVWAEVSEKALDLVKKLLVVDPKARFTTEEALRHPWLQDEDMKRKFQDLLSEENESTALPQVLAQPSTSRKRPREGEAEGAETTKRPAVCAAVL

[28] = biological target: T28, DYRK1A (Homo sapiens, UniProt Q13627)
T28 construct: purchased DiscoverX

[29] = biological target: T29, AURKB (Homo sapiens, UniProt Q96GD4)
T29 construct: purchased DiscoverX

[30] = biological target: T30, TLK2 (Homo sapiens, UniProt Q86UE8)
T30 construct: purchased DiscoverX

[31] = biological target: T31, PRKCB1_I (Homo sapiens, UniProt P05771)
T31 construct: purchased DiscoverX

[32] = biological target: T32, ALK_F1174L (Homo sapiens, UniProt Q9UM73, F1174L)
T32 construct: purchased DiscoverX

[33] = biological target: T33, JAK1 (Homo sapiens, UniProt P23458)
T33 construct: purchased DiscoverX

[34] = biological target: T34, FGFR3_K650E (Homo sapiens, UniProt P22607, K650E)
T34 construct: purchased DiscoverX
T34 sequence (P22607 23-806 K650E): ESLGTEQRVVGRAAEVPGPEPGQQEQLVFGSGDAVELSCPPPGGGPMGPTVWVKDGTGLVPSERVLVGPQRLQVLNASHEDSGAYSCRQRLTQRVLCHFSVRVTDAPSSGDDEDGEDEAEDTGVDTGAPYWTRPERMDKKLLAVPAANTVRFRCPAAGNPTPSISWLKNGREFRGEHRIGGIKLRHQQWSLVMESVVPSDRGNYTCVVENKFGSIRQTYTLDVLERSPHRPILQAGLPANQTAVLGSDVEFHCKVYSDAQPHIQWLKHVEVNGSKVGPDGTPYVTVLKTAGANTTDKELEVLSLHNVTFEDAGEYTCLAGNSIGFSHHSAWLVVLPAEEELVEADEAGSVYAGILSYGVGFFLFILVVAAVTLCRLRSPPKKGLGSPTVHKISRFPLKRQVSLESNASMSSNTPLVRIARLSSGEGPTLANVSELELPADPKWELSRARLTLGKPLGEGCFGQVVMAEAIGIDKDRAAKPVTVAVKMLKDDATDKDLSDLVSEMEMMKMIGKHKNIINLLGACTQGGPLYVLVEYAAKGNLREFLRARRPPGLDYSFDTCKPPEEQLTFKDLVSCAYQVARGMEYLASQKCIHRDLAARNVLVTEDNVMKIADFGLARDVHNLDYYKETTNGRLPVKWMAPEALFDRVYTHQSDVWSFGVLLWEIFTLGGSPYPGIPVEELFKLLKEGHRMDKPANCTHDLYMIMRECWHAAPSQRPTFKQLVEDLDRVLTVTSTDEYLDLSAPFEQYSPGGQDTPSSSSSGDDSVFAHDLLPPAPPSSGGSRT

[35] = biological target: T35, RET_V804L (Homo sapiens, UniProt P07949, V804L)
T35 construct: purchased DiscoverX
T35 sequence (P07949 29-1114 V804L): as the sequence (P07949 29-1114 E762Q) above, with Q734E, V776L counted along it

[36] = biological target: T36, SRPK1 (Homo sapiens, UniProt Q96SB4)
T36 construct: purchased DiscoverX

[37] = biological target: T37, FGFR3_G697C (Homo sapiens, UniProt P22607, G697C)
T37 construct: purchased DiscoverX
T37 sequence (P22607 23-806 G697C): as the sequence (P22607 23-806 K650E) above, with E628K, G675C counted along it

[38] = biological target: T38, PDGFRA (Homo sapiens, UniProt P16234)
T38 construct: purchased DiscoverX

[39] = biological target: T39, MET_Y1230D (Homo sapiens, UniProt P08581, Y1230D)
T39 construct: purchased DiscoverX

[40] = biological target: T40, MAP3K5 (Homo sapiens, UniProt Q99683)
T40 construct: purchased DiscoverX
T40 sequence (Q99683 whole entry): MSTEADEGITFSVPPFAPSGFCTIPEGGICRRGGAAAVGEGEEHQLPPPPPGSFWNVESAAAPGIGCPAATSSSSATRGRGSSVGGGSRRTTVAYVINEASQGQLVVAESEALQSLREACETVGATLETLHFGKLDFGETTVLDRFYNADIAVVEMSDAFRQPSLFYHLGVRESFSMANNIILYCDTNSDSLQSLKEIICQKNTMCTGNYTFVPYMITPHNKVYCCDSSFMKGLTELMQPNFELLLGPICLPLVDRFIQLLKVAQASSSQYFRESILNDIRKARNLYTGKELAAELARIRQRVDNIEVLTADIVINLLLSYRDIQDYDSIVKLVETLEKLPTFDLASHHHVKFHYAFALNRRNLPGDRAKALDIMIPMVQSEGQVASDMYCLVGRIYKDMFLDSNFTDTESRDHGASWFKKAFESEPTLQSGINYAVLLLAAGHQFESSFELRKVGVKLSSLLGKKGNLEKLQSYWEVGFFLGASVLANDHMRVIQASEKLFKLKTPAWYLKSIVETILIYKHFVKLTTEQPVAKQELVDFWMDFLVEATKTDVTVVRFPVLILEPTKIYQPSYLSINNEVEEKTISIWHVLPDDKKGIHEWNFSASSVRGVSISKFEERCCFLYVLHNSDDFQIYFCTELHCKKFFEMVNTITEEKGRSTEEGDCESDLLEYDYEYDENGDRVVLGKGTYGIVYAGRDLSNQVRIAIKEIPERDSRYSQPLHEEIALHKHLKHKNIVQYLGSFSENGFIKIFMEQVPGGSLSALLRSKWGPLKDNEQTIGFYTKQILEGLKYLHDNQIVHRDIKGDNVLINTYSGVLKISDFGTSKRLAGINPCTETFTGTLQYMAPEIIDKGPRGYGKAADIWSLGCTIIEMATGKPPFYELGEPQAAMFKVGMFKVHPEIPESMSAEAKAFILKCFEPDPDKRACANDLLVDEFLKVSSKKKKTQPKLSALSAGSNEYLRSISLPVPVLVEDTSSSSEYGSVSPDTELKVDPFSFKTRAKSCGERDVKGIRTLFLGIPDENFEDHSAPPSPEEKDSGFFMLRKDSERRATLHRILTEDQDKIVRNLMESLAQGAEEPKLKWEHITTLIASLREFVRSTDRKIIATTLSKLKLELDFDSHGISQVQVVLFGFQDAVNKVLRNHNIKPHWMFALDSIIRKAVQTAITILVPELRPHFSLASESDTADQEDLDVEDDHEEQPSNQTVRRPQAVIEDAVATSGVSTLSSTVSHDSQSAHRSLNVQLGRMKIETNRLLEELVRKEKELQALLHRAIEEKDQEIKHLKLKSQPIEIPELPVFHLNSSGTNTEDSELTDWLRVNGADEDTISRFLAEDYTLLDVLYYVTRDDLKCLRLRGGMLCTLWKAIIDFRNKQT

[41] = biological target: T41, PRKCI (Homo sapiens, UniProt P41743)
T41 construct: purchased DiscoverX

[42] = biological target: T42, FGFR1_V561M (Homo sapiens, UniProt P11362, V561M)
T42 construct: purchased DiscoverX

T3 sequence (P07949 29-1114 Y791F): as the sequence (P07949 29-1114 E762Q) above, with Q734E, Y763F counted along it
T1 sequence (P07949 29-1114 S891A): as the sequence (P07949 29-1114 E762Q) above, with Q734E, S863A counted along it

Work on Clc1cc2cc(c1)-c1cnn3ccc(nc13)NCCOCCO2 [OD36] yielded an inhibition at 0.1 µM [1] of 63%, an inhibition at 0.1 µM [2] of 57% and an inhibition at 0.1 µM [3] of 30%. For the same compound, the inhibition at 0.1 µM [4] was 33%, the inhibition at 0.1 µM [5] was 1% and the inhibition at 0.1 µM [6] was 56%. It also gave an inhibition at 0.1 µM [7] of 1%, an inhibition at 0.1 µM [8] of 8% and an inhibition at 0.1 µM [9] of 25%. It also gave an inhibition at 0.1 µM [10] of 7%, an inhibition at 0.1 µM [11] of 28% and an inhibition at 0.1 µM [12] of 12%. It also gave an inhibition at 0.1 µM [13] of 11%, an inhibition at 0.1 µM [14] of -3% and an inhibition at 0.1 µM [15] of 1%. The inhibition at 0.1 µM [16] was 62%, the inhibition at 0.1 µM [17] was 5% and the inhibition at 0.1 µM [18] was 14%. It also gave an inhibition at 0.1 µM [19] of 6%, an inhibition at 0.1 µM [20] of 4% and an inhibition at 0.1 µM [21] of 8%. The inhibition at 0.1 µM [22] was -3%, the inhibition at 0.1 µM [23] was 18% and the inhibition at 0.1 µM [24] was 10%. The inhibition at 0.1 µM [25] was 2%, the inhibition at 0.1 µM [26] was 8% and the inhibition at 0.1 µM [27] was 8%. The inhibition at 0.1 µM [28] was 7%, the inhibition at 0.1 µM [29] was 16% and the inhibition at 0.1 µM [30] was 31%. It also gave an inhibition at 0.1 µM [31] of 7%, an inhibition at 0.1 µM [32] of 8% and an inhibition at 0.1 µM [33] of 18%. It also gave an inhibition at 0.1 µM [34] of 8%, an inhibition at 0.1 µM [35] of -10% and an inhibition at 0.1 µM [36] of 10%. It also gave an inhibition at 0.1 µM [37] of -1%, an inhibition at 0.1 µM [38] of 29% and an inhibition at 0.1 µM [39] of -6%. It also gave an inhibition at 0.1 µM [40] of 13%, an inhibition at 0.1 µM [41] of 11% and an inhibition at 0.1 µM [42] of 9%.

In the case of Cc1cc2cc(c1)-c1cnn3ccc(nc13)NCCNC(=O)CCN(C)C2 [OD52], the inhibition at 0.1 µM [1] is reported as 84%, the inhibition at 0.1 µM [2] is reported as 44% and the inhibition at 0.1 µM [3] is reported as 30%. The inhibition at 0.1 µM [4] was 19%, the inhibition at 0.1 µM [5] was 16% and the inhibition at 0.1 µM [6] was 16%. The inhibition at 0.1 µM [7] was 13%, the inhibition at 0.1 µM [8] was 12% and the inhibition at 0.1 µM [9] was 10%. For the same compound, the inhibition at 0.1 µM [10] was 9%, the inhibition at 0.1 µM [11] was 9% and the inhibition at 0.1 µM [12] was 9%. For the same compound, the inhibition at 0.1 µM [13] was 8%, the inhibition at 0.1 µM [14] was 7% and the inhibition at 0.1 µM [15] was 6%. It also gave an inhibition at 0.1 µM [16] of 4%, an inhibition at 0.1 µM [17] of 4% and an inhibition at 0.1 µM [18] of 3%. For the same compound, the inhibition at 0.1 µM [19] was 2%, the inhibition at 0.1 µM [20] was 2% and the inhibition at 0.1 µM [21] was 0%. The inhibition at 0.1 µM [22] was -1%, the inhibition at 0.1 µM [23] was -1% and the inhibition at 0.1 µM [24] was -1%. The inhibition at 0.1 µM [25] was -3%, the inhibition at 0.1 µM [26] was -3% and the inhibition at 0.1 µM [27] was -3%. It also gave an inhibition at 0.1 µM [28] of -4%, an inhibition at 0.1 µM [29] of -4% and an inhibition at 0.1 µM [30] of -5%. It also gave an inhibition at 0.1 µM [31] of -5%, an inhibition at 0.1 µM [32] of -6% and an inhibition at 0.1 µM [33] of -6%. It also gave an inhibition at 0.1 µM [34] of -7%, an inhibition at 0.1 µM [35] of -8% and an inhibition at 0.1 µM [36] of -9%. The inhibition at 0.1 µM [37] was -10%, the inhibition at 0.1 µM [38] was -12% and the inhibition at 0.1 µM [39] was -12%. The inhibition at 0.1 µM [40] was -12%, the inhibition at 0.1 µM [41] was -17% and the inhibition at 0.1 µM [42] was -26%.
